#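 These data come from cells grown in 96-well plates and exposed to compound for 48 hours at five concentrations. GI50: concentration for 50% inhibition of growth. TGI marks complete inhibition of growth.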
# What was measured:
# Test in all cases: NCI anticancer screen, dose series, 48 h
# DU-145 prostate = tested on: DU-145 prostate
# PC-3 prostate = tested on: PC-3 prostate
# MOLT-4 leukemia = tested on: MOLT-4 leukemia
# HCT-15 colon = tested on: HCT-15 colon
# RXF 393 renal = tested on: RXF 393 renal
# SF-295 CNS = tested on: SF-295 CNS
# CCRF-CEM leukemia = tested on: CCRF-CEM leukemia
# K-562 leukemia = tested on: K-562 leukemia
# SW-620 colon = tested on: SW-620 colon
# NCI/ADR-RES ovarian = tested on: NCI/ADR-RES ovarian
# EKVX NSCLC = tested on: EKVX NSCLC
# IGROV1 ovarian = tested on: IGROV1 ovarian
# HT29 colon = tested on: HT29 colon
# SNB-75 CNS = tested on: SNB-75 CNS
# SK-MEL-5 melanoma = tested on: SK-MEL-5 melanoma
# UACC-62 melanoma = tested on: UACC-62 melanoma
# A549 NSCLC = tested on: A549 NSCLC
# MDA-MB-231 breast = tested on: MDA-MB-231 breast
# HS 578T breast = tested on: HS 578T breast
# SNB-19 CNS = tested on: SNB-19 CNS
# MDA-MB-468 breast = tested on: MDA-MB-468 breast
# OVCAR-3 ovarian = tested on: OVCAR-3 ovarian
# CAKI-1 renal = tested on: CAKI-1 renal
# RPMI-8226 leukemia = tested on: RPMI-8226 leukemia
# HCC-2998 colon = tested on: HCC-2998 colon
# LOX IMVI melanoma = tested on: LOX IMVI melanoma
# SF-268 CNS = tested on: SF-268 CNS
# HOP-92 NSCLC = tested on: HOP-92 NSCLC
# HOP-62 NSCLC = tested on: HOP-62 NSCLC
# OVCAR-4 ovarian = tested on: OVCAR-4 ovarian
# KM12 colon = tested on: KM12 colon
# SF-539 CNS = tested on: SF-539 CNS
# NCI-H23 lung = tested on: NCI-H23 lung
# ACHN renal = tested on: ACHN renal
# A498 renal = tested on: A498 renal
# BT-549 breast = tested on: BT-549 breast
# M14 melanoma = tested on: M14 melanoma
# SK-MEL-28 melanoma = tested on: SK-MEL-28 melanoma
# MALME-3M melanoma = tested on: MALME-3M melanoma
# HL-60(TB) leukemia = tested on: HL-60(TB) leukemia
# 786-0 renal = tested on: 786-0 renal
# UACC-257 melanoma = tested on: UACC-257 melanoma
# SK-OV-3 ovarian = tested on: SK-OV-3 ovarian
# MDA-MB-435 = tested on: MDA-MB-435
# NCI-H522 lung = tested on: NCI-H522 lung
# TK-10 renal = tested on: TK-10 renal
# T-47D breast = tested on: T-47D breast
# NCI-H226 lung = tested on: NCI-H226 lung
# SK-MEL-2 melanoma = tested on: SK-MEL-2 melanoma
# OVCAR-5 ovarian = tested on: OVCAR-5 ovarian
# UO-31 renal = tested on: UO-31 renal
# OVCAR-8 ovarian = tested on: OVCAR-8 ovarian
# MCF7 breast = tested on: MCF7 breast
smiles,measurement,setting,value
CN1CCCN(Cc2ccc(C(=O)Nc3cccc(Nc4ccc5c(O)cccc5n4)c3)cc2C(F)(F)F)CC1,GI50,DU-145 prostate,3.27 µM
same,TGI,DU-145 prostate,10.1 µM
same,GI50,PC-3 prostate,1.87 µM
same,TGI,PC-3 prostate,5.73 µM
same,GI50,MOLT-4 leukemia,2.11 µM
same,TGI,MOLT-4 leukemia,6.94 µM
same,GI50,HCT-15 colon,1.93 µM
same,TGI,HCT-15 colon,4.04 µM
same,GI50,RXF 393 renal,1.85 µM
same,TGI,RXF 393 renal,3.71 µM
same,GI50,SF-295 CNS,1.67 µM
same,TGI,SF-295 CNS,3.07 µM
same,GI50,CCRF-CEM leukemia,2.07 µM
same,TGI,CCRF-CEM leukemia,> 100 µM
same,GI50,K-562 leukemia,2.18 µM
same,TGI,K-562 leukemia,> 100 µM
same,GI50,SW-620 colon,1.95 µM
same,TGI,SW-620 colon,3.44 µM
same,GI50,NCI/ADR-RES ovarian,6.43 µM
same,TGI,NCI/ADR-RES ovarian,68.5 µM
same,GI50,EKVX NSCLC,1.82 µM
same,TGI,EKVX NSCLC,3.5 µM
same,GI50,IGROV1 ovarian,2.56 µM
same,TGI,IGROV1 ovarian,6.88 µM
same,GI50,HT29 colon,1.92 µM
same,TGI,HT29 colon,3.76 µM
same,GI50,SNB-75 CNS,1.32 µM
same,TGI,SNB-75 CNS,7.46 µM
same,GI50,SK-MEL-5 melanoma,1.72 µM
same,TGI,SK-MEL-5 melanoma,3.09 µM
same,GI50,UACC-62 melanoma,1.69 µM
same,TGI,UACC-62 melanoma,3.13 µM
same,GI50,A549 NSCLC,3.63 µM
same,TGI,A549 NSCLC,15.1 µM
same,GI50,MDA-MB-231 breast,1.65 µM
same,TGI,MDA-MB-231 breast,3.18 µM
same,GI50,HS 578T breast,1.93 µM
same,TGI,HS 578T breast,4.85 µM
same,GI50,SNB-19 CNS,2.03 µM
same,TGI,SNB-19 CNS,3.91 µM
same,GI50,MDA-MB-468 breast,1.66 µM
same,TGI,MDA-MB-468 breast,3.13 µM
same,GI50,OVCAR-3 ovarian,1.97 µM
same,TGI,OVCAR-3 ovarian,4.41 µM
same,GI50,CAKI-1 renal,1.8 µM
same,TGI,CAKI-1 renal,3.94 µM
same,GI50,RPMI-8226 leukemia,2.89 µM
same,TGI,RPMI-8226 leukemia,9.36 µM
same,GI50,HCC-2998 colon,1.8 µM
same,TGI,HCC-2998 colon,3.19 µM
same,GI50,LOX IMVI melanoma,1.63 µM
same,TGI,LOX IMVI melanoma,2.99 µM
same,GI50,SF-268 CNS,2.14 µM
same,TGI,SF-268 CNS,5.24 µM
same,GI50,HOP-92 NSCLC,1.64 µM
same,TGI,HOP-92 NSCLC,4.41 µM
same,GI50,HOP-62 NSCLC,2.03 µM
same,TGI,HOP-62 NSCLC,4.58 µM
same,GI50,OVCAR-4 ovarian,3.83 µM
same,TGI,OVCAR-4 ovarian,15.4 µM
same,GI50,KM12 colon,1.98 µM
same,TGI,KM12 colon,3.99 µM
same,GI50,SF-539 CNS,1.7 µM
same,TGI,SF-539 CNS,3.12 µM
same,GI50,NCI-H23 lung,1.78 µM
same,TGI,NCI-H23 lung,3.31 µM
same,GI50,ACHN renal,1.92 µM
same,TGI,ACHN renal,3.74 µM
same,GI50,A498 renal,15.3 µM
same,TGI,A498 renal,29 µM
same,GI50,BT-549 breast,1.8 µM
same,TGI,BT-549 breast,3.28 µM
same,GI50,M14 melanoma,1.89 µM
same,TGI,M14 melanoma,4.49 µM
same,GI50,SK-MEL-28 melanoma,1.82 µM
same,TGI,SK-MEL-28 melanoma,3.27 µM
same,GI50,MALME-3M melanoma,1.7 µM
same,TGI,MALME-3M melanoma,3.14 µM
same,GI50,HL-60(TB) leukemia,2.35 µM
same,TGI,HL-60(TB) leukemia,5.52 µM
same,GI50,786-0 renal,2.06 µM
same,TGI,786-0 renal,3.8 µM
same,GI50,UACC-257 melanoma,1.6 µM
same,TGI,UACC-257 melanoma,3.2 µM
same,GI50,SK-OV-3 ovarian,11.1 µM
same,TGI,SK-OV-3 ovarian,27.1 µM
same,GI50,MDA-MB-435,1.78 µM
same,TGI,MDA-MB-435,3.6 µM
same,GI50,NCI-H522 lung,1.84 µM
same,TGI,NCI-H522 lung,3.51 µM
same,GI50,TK-10 renal,2.8 µM
same,TGI,TK-10 renal,8.95 µM
same,GI50,T-47D breast,3.46 µM
same,TGI,T-47D breast,13.3 µM
same,GI50,NCI-H226 lung,16.7 µM
same,TGI,NCI-H226 lung,46.8 µM
same,GI50,SK-MEL-2 melanoma,1.81 µM
same,TGI,SK-MEL-2 melanoma,3.46 µM
same,GI50,OVCAR-5 ovarian,11.4 µM
same,TGI,OVCAR-5 ovarian,23.9 µM
same,GI50,UO-31 renal,2.04 µM
same,TGI,UO-31 renal,4.96 µM
same,GI50,OVCAR-8 ovarian,2.51 µM
same,TGI,OVCAR-8 ovarian,6.22 µM
same,GI50,MCF7 breast,1.68 µM
same,TGI,MCF7 breast,3.2 µM

# From PubChem BioAssay (NCI)
